According to the NIST ThermoML archive (doi:10.1016/j.jct.2018.04.018):
Where “and” joins values, the source holds several entries; their conditions need not be identical. Equal values may be shown once.

Conditions: 101.33 kPa, Liquid

CCCCCCCC[n+]1ccn(C)c1.F[P-](F)(F)(F)(F)F [1-octyl-3-methylimidazolium hexafluorophosphate]
Conditions | mass density [kg/m3] | viscosity
369.26 K, Cone and plate viscometry | – | 26.6 mPa·s
369.99 K, Cone and plate viscometry | – | 26 mPa·s and 26.4 mPa·s
370.73 K, Cone and plate viscometry | – | 25.4 mPa·s and 25.8 mPa·s
371.47 K, Cone and plate viscometry | – | 25.2 mPa·s
371.49 K, Cone and plate viscometry | – | 24.8 mPa·s
372.22 K, Cone and plate viscometry | – | 24.8 mPa·s
372.23 K, Cone and plate viscometry | – | 24.3 mPa·s
372.96 K, Cone and plate viscometry | – | 24.3 mPa·s
372.97 K, Cone and plate viscometry | – | 24.4 mPa·s
373.15 K, Concentric cylinders viscometry | – | 24 mPa·s
373.15 K, Vibrating tube method | 1181.63 | –
373.71 K, Cone and plate viscometry | – | 23.3 mPa·s and 23.7 mPa·s
374.44 K, Cone and plate viscometry | – | 23.1 mPa·s
374.45 K, Cone and plate viscometry | – | 22.9 mPa·s
375.19 K, Cone and plate viscometry | – | 22.4 mPa·s and 22.6 mPa·s
375.94 K, Cone and plate viscometry | – | 22.1 mPa·s and 22.3 mPa·s
376.68 K, Cone and plate viscometry | – | 21.9 mPa·s
376.69 K, Cone and plate viscometry | – | 22 mPa·s
377.41 K, Cone and plate viscometry | – | 21.8 mPa·s
377.42 K, Cone and plate viscometry | – | 21.6 mPa·s
378.16 K, Cone and plate viscometry | – | 21.1 mPa·s
378.9 K, Cone and plate viscometry | – | 20.7 mPa·s
378.91 K, Cone and plate viscometry | – | 20.6 mPa·s
379.64 K, Cone and plate viscometry | – | 20.3 mPa·s
379.65 K, Cone and plate viscometry | – | 20.4 mPa·s
380.39 K, Cone and plate viscometry | – | 19.7 mPa·s and 19.9 mPa·s
381.13 K, Cone and plate viscometry | – | 19.6 mPa·s
381.14 K, Cone and plate viscometry | – | 19.4 mPa·s
381.87 K, Cone and plate viscometry | – | 19.2 mPa·s
381.88 K, Cone and plate viscometry | – | 19 mPa·s
382.62 K, Cone and plate viscometry | – | 18.5 mPa·s and 18.7 mPa·s
383.35 K, Cone and plate viscometry | – | 18.2 mPa·s
383.36 K, Cone and plate viscometry | – | 18.4 mPa·s
384.1 K, Cone and plate viscometry | – | 18.2 mPa·s
384.11 K, Cone and plate viscometry | – | 17.9 mPa·s
384.85 K, Cone and plate viscometry | – | 17.7 mPa·s and 17.9 mPa·s
385.6 K, Cone and plate viscometry | – | 17.4 mPa·s and 17.6 mPa·s
386.33 K, Cone and plate viscometry | – | 16.8 mPa·s
386.34 K, Cone and plate viscometry | – | 17 mPa·s
387.07 K, Cone and plate viscometry | – | 16.6 mPa·s
387.08 K, Cone and plate viscometry | – | 16.8 mPa·s
387.82 K, Cone and plate viscometry | – | 16.5 mPa·s and 16.7 mPa·s
388.56 K, Cone and plate viscometry | – | 16.6 mPa·s
388.57 K, Cone and plate viscometry | – | 16.5 mPa·s
389.3 K, Cone and plate viscometry | – | 16 mPa·s
389.32 K, Cone and plate viscometry | – | 16.2 mPa·s
390.04 K, Cone and plate viscometry | – | 15.8 mPa·s
390.05 K, Cone and plate viscometry | – | 15.6 mPa·s
390.79 K, Cone and plate viscometry | – | 15.3 mPa·s and 15.5 mPa·s
391.53 K, Cone and plate viscometry | – | 15.4 mPa·s
391.54 K, Cone and plate viscometry | – | 15.1 mPa·s
392.26 K, Cone and plate viscometry | – | 14.7 mPa·s
392.28 K, Cone and plate viscometry | – | 15.2 mPa·s
393.01 K, Cone and plate viscometry | – | 14.6 mPa·s
393.02 K, Cone and plate viscometry | – | 14.8 mPa·s
393.75 K, Cone and plate viscometry | – | 14.5 mPa·s
393.76 K, Cone and plate viscometry | – | 14.3 mPa·s
394.5 K, Cone and plate viscometry | – | 14.3 mPa·s
394.51 K, Cone and plate viscometry | – | 14.2 mPa·s
395.25 K, Cone and plate viscometry | – | 14.1 mPa·s
395.26 K, Cone and plate viscometry | – | 14 mPa·s
395.99 K, Cone and plate viscometry | – | 13.9 mPa·s and 14 mPa·s
396.73 K, Cone and plate viscometry | – | 13.7 mPa·s and 13.9 mPa·s
397.47 K, Cone and plate viscometry | – | 13.5 mPa·s
397.48 K, Cone and plate viscometry | – | 13.5 mPa·s
398.22 K, Cone and plate viscometry | – | 13.2 mPa·s and 13.4 mPa·s
398.96 K, Cone and plate viscometry | – | 13 mPa·s
398.97 K, Cone and plate viscometry | – | 13.1 mPa·s
399.7 K, Cone and plate viscometry | – | 12.9 mPa·s and 13 mPa·s
400.44 K, Cone and plate viscometry | – | 12.9 mPa·s
400.45 K, Cone and plate viscometry | – | 12.7 mPa·s
401.19 K, Cone and plate viscometry | – | 12.6 mPa·s and 12.8 mPa·s
401.93 K, Cone and plate viscometry | – | 12.3 mPa·s
401.94 K, Cone and plate viscometry | – | 12.6 mPa·s
402.67 K, Cone and plate viscometry | – | 12.2 mPa·s and 12.4 mPa·s
403.42 K, Cone and plate viscometry | – | 12.1 mPa·s and 12.3 mPa·s
404.16 K, Cone and plate viscometry | – | 12 mPa·s and 12.1 mPa·s
404.9 K, Cone and plate viscometry | – | 11.7 mPa·s
404.91 K, Cone and plate viscometry | – | 12 mPa·s
405.64 K, Cone and plate viscometry | – | 11.5 mPa·s and 11.6 mPa·s
406.39 K, Cone and plate viscometry | – | 11.3 mPa·s and 11.5 mPa·s
407.13 K, Cone and plate viscometry | – | 11.2 mPa·s and 11.4 mPa·s
407.87 K, Cone and plate viscometry | – | 11.3 mPa·s
407.88 K, Cone and plate viscometry | – | 11.1 mPa·s
408.62 K, Cone and plate viscometry | – | 10.6 mPa·s and 10.7 mPa·s
409.35 K, Cone and plate viscometry | – | 10.4 mPa·s and 10.5 mPa·s
410.1 K, Cone and plate viscometry | – | 10.3 mPa·s and 10.4 mPa·s
410.84 K, Cone and plate viscometry | – | 10.3 mPa·s
410.85 K, Cone and plate viscometry | – | 10.2 mPa·s
411.58 K, Cone and plate viscometry | – | 10.1 mPa·s
411.59 K, Cone and plate viscometry | – | 10.2 mPa·s
412.33 K, Cone and plate viscometry | – | 10 mPa·s and 10.1 mPa·s
413.07 K, Cone and plate viscometry | – | 9.6 mPa·s and 9.9 mPa·s
413.82 K, Cone and plate viscometry | – | 9.6 mPa·s and 9.7 mPa·s
